{"source": "patent US20200222391A1", "about": "“SOLID PREPARATION OF CARIPRAZINE FOR ORAL ADMINISTRATION” (Richter Gedeon Nyrt., priority 2017, published 2020)", "key": {"[1]": {"assay": "pH-solubility of cariprazine hydrochloride at 37° C.", "assay_type": "physicochemical", "excerpt": "Cariprazine salts are very well soluble in acidic environment. However, drugs, which are soluble in acidic environment can be practically insoluble in neutral or basic environment."}, "[2]": {"assay": "Caco-2 model of drug absorption (permeability)", "assay_type": "in vitro ADME", "settings": "human, read-out: permeability directional ratio (PDR)", "description": "In the Caco-2 model of drug absorption, the permeability coefficients of cariprazine in inward and outward directions were calculated to be 26.4.10-6 cm/sec and 51.2.10-6 cm/sec, respectively (permeability directional ratio (PDR): 1.9) (Artursson P & Karlsson J (1991). “Correlation between oral drug absorption in humans and apparent drug permeability coefficients in human intestinal epithelial (Caco-2) cells”. Biochem Biophys Res Comm 175 (3): 880-5 and internal data)."}}, "note": "Counter-ions that a name gives are not always drawn. Like-named read-outs stand apart in the source and are kept apart here."}
{"smiles": "CN(C)C(=O)N[C@H]1CC[C@H](CCN2CCN(c3cccc(Cl)c3Cl)CC2)CC1", "note": "[cariprazine hydrochloride]", "values": [{"measurement": "pH value of best solubility", "setting": "[1]", "value": "~3"}, {"measurement": "solubility", "setting": "[1]; 37 °C, pH 1, simulated gastric fluid, pH 1, read-out: Solubility", "value": 3260, "unit": "µg/mL"}, {"measurement": "solubility", "setting": "[1]; 37 °C, pH 2, simulated gastric fluid, pH 2, read-out: Solubility", "value": 8930, "unit": "µg/mL"}, {"measurement": "solubility", "setting": "[1]; 37 °C, pH 3, aqueous buffer, pH 3, read-out: Solubility", "value": 11000, "unit": "µg/mL"}, {"measurement": "solubility", "setting": "[1]; 37 °C, pH 4, aqueous buffer, pH 4, read-out: Solubility", "value": 3230, "unit": "µg/mL"}, {"measurement": "solubility", "setting": "[1]; 37 °C, pH 5, aqueous buffer, pH 5, read-out: Solubility", "value": 351, "unit": "µg/mL"}, {"measurement": "solubility", "setting": "[1]; 37 °C, pH 5.5, aqueous buffer, pH 5.5, read-out: Solubility", "value": 149, "unit": "µg/mL"}, {"measurement": "solubility", "setting": "[1]; 37 °C, pH 6, aqueous buffer, pH 6, read-out: Solubility", "value": 18.8, "unit": "µg/mL"}, {"measurement": "solubility", "setting": "[1]; 37 °C, pH 7, aqueous buffer, pH 7, read-out: Solubility", "value": 1, "unit": "µg/mL"}, {"measurement": "solubility", "setting": "[1]; pH 1, hydrochloride", "value": 3257.9, "unit": "µg/mL"}, {"measurement": "solubility", "setting": "[1]; pH 7, hydrochloride", "value": 1.3, "unit": "µg/mL"}]}
{"smiles": "CN(C)C(=O)N[C@H]1CC[C@H](CCN2CCN(c3cccc(Cl)c3Cl)CC2)CC1", "note": "[cariprazine, trans-N-{4-[2-[4-(2,3-dichlorophenyl)-piperazin-1-yl]-ethyl]-cyclohexyl}-N′,N′-dimethylurea]", "values": [{"measurement": "efflux ratio", "setting": "[2]", "value": 1.9}]}
